Test results as given in ChEMBL document CHEMBL3576797, “Pyridopyrimidinone Derivatives as Potent and Selective c-Jun N-Terminal Kinase (JNK) Inhibitors” (ACS Med Chem Lett, 2015).

Key:
[1] = Half life in mouse liver microsomes; type: ADME
[2] = AUC in mouse at 0.5 mg/kg, iv by LC-MS/MS analysis; type: ADME, organism-based; details: in vivo
[3] = Half life in mouse at 0.5 mg/kg, iv by LC-MS/MS analysis; type: ADME, organism-based; details: in vivo
[4] = Half life in human liver microsomes; type: ADME
[5] = Clearance in mouse at 0.5 mg/kg, iv by LC-MS/MS analysis; type: ADME, organism-based; details: in vivo
[6] = Cmax in mouse at 0.5 mg/kg, iv by LC-MS/MS analysis; type: ADME, organism-based; parameters: dose 0.5 mg/kg, route intravenous; details: in vivo
[7] = Volume of distribution in mouse at 0.5 mg/kg, iv by LC-MS/MS analysis; type: ADME, organism-based; details: in vivo
[8] = Oral bioavailability in mouse at 3 mg/kg by LC-MS/MS analysis; type: ADME, organism-based; details: in vivo

**Q.** Which half-life [1] does the source give for `CC(C)NC(=O)N[C@H]1CC[C@H](Nc2ncc3ccc(=O)n(C(C)C)c3n2)CC1` here?
**A.** 22 min

**Q.** What about the AUC [2] of the same compound?
**A.** 0.8 µM·h

**Q.** What about the half-life [3] of the same compound?
**A.** 66 min

**Q.** What about the half-life [4] of the same compound?
**A.** 76 min

**Q.** What about the clearance [5] of the same compound?
**A.** 28 mL/min/kg

**Q.** What about the Cmax [6] of the same compound?
**A.** 900 nM

**Q.** And the Vd [7]?
**A.** 1.8 L/kg

**Q.** What about the bioavailability [8] of the same compound?
**A.** 87%

**Q.** Which half-life [1] does the source give for `CCNC(=O)N[C@H]1CC[C@@H](Nc2ncc3ccc(=O)n(C(C)C)c3n2)CC1` here?
**A.** 8 min

**Q.** And the half-life [4]?
**A.** 16 min

**Q.** What does the source list for `CC(C)n1c(=O)ccc2cnc(N[C@H]3CC[C@H](O)CC3)nc21`?
**A.** half-life [1]: 23 min; half-life [4]: > 120 min; bioavailability [8]: 10%

**Q.** Which half-life [1] does the source give for `CCNC(=O)N1CCC(Nc2ncc3ccc(=O)n(C(C)C)c3n2)CC1` here?
**A.** 14 min

**Q.** And the AUC [2]?
**A.** 0.7 µM·h

**Q.** What about the half-life [3] of the same compound?
**A.** 24 min

**Q.** And the half-life [4]?
**A.** 65 min

**Q.** What about the clearance [5] of the same compound?
**A.** 33 mL/min/kg

**Q.** What about the Cmax [6] of the same compound?
**A.** 1100 nM

**Q.** What about the Vd [7] of the same compound?
**A.** 1 L/kg

**Q.** And the bioavailability [8]?
**A.** 43%

**Q.** With `CC(C)C(=O)N[C@H]1CC[C@H](Nc2ncc3ccc(=O)n(C(C)C)c3n2)CC1` as the compound, how does the half-life [1] read?
**A.** 19 min

**Q.** What about the AUC [2] of the same compound?
**A.** 0.7 µM·h

**Q.** And the half-life [3]?
**A.** 30 min

**Q.** What about the half-life [4] of the same compound?
**A.** 44 min

**Q.** What about the clearance [5] of the same compound?
**A.** 33 mL/min/kg

**Q.** And the Cmax [6]?
**A.** 1000 nM

**Q.** And the Vd [7]?
**A.** 1.3 L/kg

**Q.** And the bioavailability [8]?
**A.** 66%

**Q.** Which half-life [1] does the source give for `CC(C)NC(=O)N[C@H]1CC[C@H](Nc2ncc3ccc(=O)n(C4CCCC4)c3n2)CC1` here?
**A.** 5 min

**Q.** What about the half-life [4] of the same compound?
**A.** 7 min

**Q.** Which half-life [1] does the source give for `CCNC(=O)N[C@H]1CC[C@H](Nc2ncc3ccc(=O)n(C(C)C)c3n2)CC1` here?
**A.** 17 min

**Q.** And the AUC [2]?
**A.** 0.3 µM·h

**Q.** What about the half-life [3] of the same compound?
**A.** 18 min

**Q.** And the half-life [4]?
**A.** 46 min

**Q.** And the clearance [5]?
**A.** 72 mL/min/kg

**Q.** What about the Cmax [6] of the same compound?
**A.** 600 nM

**Q.** What about the Vd [7] of the same compound?
**A.** 1.9 L/kg

**Q.** What about the bioavailability [8] of the same compound?
**A.** 100%
